In patent publication US20130150354A1, “NEW SELECTIVE CCR2 ANTAGONISTS” (BOEHRINGER INGELHEIM INTERNATIONAL GMBH, priority 2011, published 2013):

Tests used:
CCR2 = molecular target: T1, CCR2 (Homo sapiens, UniProt P41597); assay: CCR2 receptor membrane binding assay (THP-1 membranes, 125I-MCP-1, SPA beads); conditions: THP-1 cell membranes, 125I-MCP-1, 8 h; read-out: hKi [nM] (CCR2)
T1 construct: Membranes were prepared from THP-1 cells; endogenous in cells; host or cells: THP-1 (human acute monocytic leukaemia cells), membrane preparation
T1 sequence (P41597 1-360 isoform P41597-2): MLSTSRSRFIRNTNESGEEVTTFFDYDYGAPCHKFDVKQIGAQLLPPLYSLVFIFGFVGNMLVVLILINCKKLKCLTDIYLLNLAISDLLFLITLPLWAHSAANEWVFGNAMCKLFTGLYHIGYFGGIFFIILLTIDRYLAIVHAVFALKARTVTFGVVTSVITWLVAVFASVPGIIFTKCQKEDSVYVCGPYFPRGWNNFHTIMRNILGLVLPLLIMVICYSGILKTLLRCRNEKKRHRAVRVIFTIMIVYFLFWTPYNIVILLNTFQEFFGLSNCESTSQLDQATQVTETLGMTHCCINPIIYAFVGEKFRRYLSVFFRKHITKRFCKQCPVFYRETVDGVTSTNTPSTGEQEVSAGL
Protocol: The above exemplary substances have been tested for binding to CCR2 using a binding assay as outlined herein below:
THP-1 cells (human acute monocytic leukaemia cells) were cultured under standardized conditions at 37° C. and 5% CO2 in a humidified incubator. THP-1 cells were cultivated in RPMI 1640 medium (Gibco 21875) containing 1% MEM-NEAA (Gibso 11140) 2 mM L-glutamine, 1.5 g/L sodium bicarbonate, 4.5 g/L glucose, 10 mM HEPES and 1.0 mM sodium pyruvate, 90%; 10% fetal calf serum (FCS Gibco 10500-064).
Membranes were prepared from THP-1 cells. THP-1 cells were centrifuged at 300×g at 4° C. for 10 min. The cell pellet was resuspendet in Phosphate Buffer Saline (PBS, including 10 μM Pefabloc and a protease inhibitor mix ‘complete’, Boehringer Mannheim (1 tablet/50 ml)), to a concentration of […]. The membrane preparation was performed by disrupting the cells by nitrogen […] (at 50 bar, for 1 h) in a “Nitrogen Bombe” (Parr Instrument). Cell debris was removed by centrifugation (800×g at 4° C., 1 min). The supernatant was centrifuged at 80000×g, 4° C. for 30 min to sediment the cell membranes. Usually 50 mg of protein (Bradford assay) were yielded from 1×10E9 cells. The membranes were resuspendet in 25 mM HEPES, 25 mM MgCl2, 1 mM CaCl2, 10% Glycerine for storage in aliquots at −80° C. in 25 mM HEPES, 25 mM MgCl2, 1 mM CaCl2, 10% Glycerine and stored at −80° C.
Perkin Elmer NEX 332 Jod^125 MCP-1, Stock: 2200 Ci/mmol solved in 2000 μl assay buffer, stored at −20° C. THP-1 membrane were adjusted with 25 mM HEPES, pH 7.2; 5 mM MgCl2; 0.5 mM CaCl2; 0.2% BSA assay buffer to a concentration of 2.5 μg/15 μl. Amersham Biosciences PVT-WGA Beads (RPNQ0001) were adjusted with assay buffer to a concentration of 0.24 mg/30 μl. For preparation of the membrane-bead-suspension membranes and beads were incubated for 30 min at RT under rotation (60 rpm) with a ratio of 1:2. Test compounds dissolved in 100% DMSO to a concentration of 10 mM and are further diluted with 100% DMSO to 1 mM. All additional compound dilutions were obtained with assay buffer, final 1% DMSO. Compounds, membrane-bead-suspension and [^125]MCP-1 (ca. 25000 cpm/10 μl) were incubated. Bound radioactivity was determined by scintillation counter after 8 h. Determination of affinity of test compounds (dissociation constant hKi) is calculated by iterative fitting of experimental data using the “easy sys” program, which is based on law of mass action (Schittkowski K. (1994), Numerische Mathematik, Vol. 68, 129-142).

human CCR5 = molecular target: T2, human CCR5 (Homo sapiens, UniProt P51681); assay: CCR5 receptor membrane binding assay (CHO (Gα16) human CCR5 membranes, [125I]RANTES, SPA beads); conditions: 6 h, read-out: hKi [nM] (CCR5)
T2 construct: expressed in transfected cells; host or cells: CHO cells co-expressing Gα16, grown under puromycin and zeocin selection; membrane preparation
T2 sequence (P51681 whole entry): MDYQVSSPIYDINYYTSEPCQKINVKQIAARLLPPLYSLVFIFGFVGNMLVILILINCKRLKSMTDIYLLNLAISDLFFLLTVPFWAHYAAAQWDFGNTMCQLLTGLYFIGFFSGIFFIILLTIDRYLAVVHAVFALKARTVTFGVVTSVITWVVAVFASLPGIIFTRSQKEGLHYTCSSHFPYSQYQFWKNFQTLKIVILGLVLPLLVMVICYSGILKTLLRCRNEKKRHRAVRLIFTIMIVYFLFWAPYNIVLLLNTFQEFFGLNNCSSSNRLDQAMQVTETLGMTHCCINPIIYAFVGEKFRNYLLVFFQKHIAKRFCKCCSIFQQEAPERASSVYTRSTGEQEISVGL
Protocol: The above exemplary substances have been tested for binding to CCR5 using a binding assay as outlined herein below:
CHO, (Gα16) human CCR5 cells were cultured under standardized conditions at 37° C. and 5% CO2 in a humidified incubator. CHO (Gα16) human CCR5 cells were cultivated in Ham's F12 (Invitrogen; #31765068) supplemented with 10 µg/ml Puromycin (Invitrogen; #A11139-03), 200 µg/ml Zeocin (Invitrogen; #45-0003) and 10% FCS (Gibco; #10500-064).
Membranes were prepared from CHO (Gα16) human CCR5 cells. Cells were cultured on […] plates (Nunc; #166508) 2-3 days before membrane preparation (usually 80-100 plates to obtain 80 mg protein).
Cells were scraped off the plates with a big scraper and washed with 2×5 ml ice cold Phosphate Buffer Saline (PBS; Invitrogen; #14040-174). Cell suspension was collected in a glass bottle (on ice). Cell suspension was harvested at 1400 rpm and 4° C. for 10 min and washed in PBS. Cell pellet was resuspended in 40 ml PBS with protease inhibitor mix ‘complete’ (Roche; #11873580001; 1 tablet/50 ml).
For gentle cell disruption the membrane preparation was performed by using a homogenizer (potter). Cells were homogenized for 5-10 min.
Membranes were centrifuged at 1000 rpm and 4° C. for 5 min. Supernatant (=membrane) was harvested in a new falcon tube and remaining cell pellet homogenized again for 5-10 min with PBS with protease inhibitor mix and centrifuged. Collected supernatant was centrifuged at 40000 rpm and 4° C. for 30 min to sediment the cell membranes.
The membranes were resuspended in 25 mM HEPES, 25 mM MgCl2, 1 mM CaCl2, 10% Glycerine for storage in aliquots at −80° C. Membranes were diluted to a concentration of 5 mg/ml (Bradford Assay).
[^125I]RANTES, Stock: 1825 Ci/mmol, 25 μCi (Bio Trend #A3-AI-676) was solved in 1000 μl assay buffer (100 mM NaCl; 10 mM MgCl2; 50 mM Tris-HCl; 1 mM EDTA; 0.1% BSA, pH 7.6), stored at −20° C.
CHO (Gα16) human CCR5 membrane were solved on ice and adjusted with assay buffer to a concentration of 2.5 μg/15 μl.
Amersham Biosciences PVT-WGA Beads (GE Healthcare; #RPNQ0001) were adjusted with assay buffer to a concentration of 8 mg/ml. For preparation of the membrane-bead-suspension, membranes and beads were incubated for 30 min at RT under rotation with a ratio of 1:2.
Test compounds dissolved in 100% DMSO to a concentration of 10 mM and are further diluted with 100% DMSO to 1 mM. All additional compound dilutions were obtained with assay buffer, final 1% DMSO. 7 μl compound dilution, 45 μl membrane-bead-suspension and 10 μl [^125I]RANTES (ca. 20000 cpm/10 μl) were incubated at RT. Bound radioactivity was determined by scintillation counter after 6 h. Determination of affinity of test compounds (dissociation constant Ki) is calculated by iterative fitting of experimental data using the “easy sys” program, which is based on law of mass action (Schittkowski K. (1994), Numerische Mathematik, Vol. 68, 129-142).

SMILES | Ki (CCR2) [nM] | Ki (human CCR5) [nM]
COc1nc(Nc2ccc(Cl)c(Cl)c2)c(C)c(C(=O)N2CCC(N3CCO[C@H]4COCC[C@H]43)CC2)n1 (single isomer, unassigned) [Example 37a] | 1 | 300
Cc1c(Nc2ccc(Cl)c(Cl)c2)nc(C2CC2)nc1C(=O)N1CCC(N2CCO[C@H]3COCC[C@H]32)CC1 [Example 26] | 0.8 | 430
Cc1nc(Nc2ccc(Cl)c(Cl)c2)c(C)c(C(=O)N2CCC(N3CCO[C@H]4COCC[C@H]43)CC2)n1 [Example 25] | 3 | 470
COc1nc(Nc2cccc(C(F)(F)F)c2)c(C)c(C(=O)N2CCC(N3CCO[C@H]4COCC[C@H]43)CC2)n1 (single isomer, unassigned) [Example 36a] | 7 | 1550
Cc1ccc([C@@H]2CCC[C@H](CNc3ncnc(C(=O)N4CCC(N5CCOC6COCCC65)CC4)c3C)O2)cc1 (stereo partly shown) [Example 22] | 15 | 1170
Cc1c(NC[C@H]2CCC[C@@H](c3ccccc3)C2)ncnc1C(=O)N1CCC(N2CC3CN(S(C)(=O)=O)CC3C2)CC1 (stereo partly shown) [Example 43] | 1 | 43
Cc1nc(Nc2cccc(C(F)(F)F)c2)c(C)c(C(=O)N2CCC(N3CCO[C@H]4COCC[C@H]43)CC2)n1 (single isomer, unassigned) [Example 40b] | 9 | 640
Cc1c(C(=O)N2CCC(N3CC4COCC4C3)CC2)ncnc1N1CCc2ccc(C(F)(F)F)cc2C1 (stereo not shown) [Example 32] | 80 | 5310
Cc1nc(Nc2ccc(Cl)c(Cl)c2)c(C)c(C(=O)N2CCC(N3CCO[C@H]4COCC[C@H]43)CC2)n1 (single isomer, unassigned) [Example 38a] | 3 | 260
Cc1c(NCc2ccc(C(C)(C)C)cc2)ncnc1C(=O)N1CCC(N2CC3COCC3C2)CC1 (stereo not shown) [Example 45] | 36 | 4110
Cc1c(Nc2ccc(Cl)c(Cl)c2)nc(C2CC2)nc1C(=O)N1CCC(N2CCO[C@H]3COCC[C@H]32)CC1 (single isomer, unassigned) [Example 35a] | 1 | 160
COc1nc(Nc2cccc(C(F)(F)F)c2)c(C)c(C(=O)N2CCC(N3CCO[C@H]4COCC[C@H]43)CC2)n1 [Example 27] | 3 | 1000
Cc1c(Nc2ccc(Cl)c(Cl)c2)ncnc1C(=O)N1CCC(N2CC3COCC3C2)CC1 (stereo not shown) [Example 18] | 24 | 930
COc1nc(Nc2ccc(Cl)c(Cl)c2)c(C)c(C(=O)N2CCC(N3CCO[C@H]4COCC[C@H]43)CC2)n1 [Example 28] | 0.9 | 390
Cc1c(NC[C@H]2CCC[C@@H](c3ccccc3)C2)ncnc1C(=O)N1CCC(N2CC3COCC3C2)CC1 (stereo partly shown) [Example 44] | 7 | 65
Cc1c(NC[C@H]2CCC[C@@H](c3ccc(C(F)(F)F)cc3)O2)ncnc1C(=O)N1CCC(N2CCO[C@H]3COCC[C@H]32)CC1 [Example 2] | 0.5 | 460
Cc1ccc2c(c1)CN(c1nc(C)nc(C(=O)N3CCC(N4CCO[C@H]5COCC[C@H]54)CC3)c1C)CC2 [Example 31] | 67 | 7010
Cc1c(NC[C@H]2CCC[C@@H](c3ccccc3)C2)ncnc1C(=O)N1CCC(N2C[C@H]3C[C@@H](N(C)S(C)(=O)=O)C[C@H]3C2)CC1 [Example 11] | 0.8 | 15
Cc1c(C(=O)N2CCC(N3CC4CN(S(C)(=O)=O)CC4C3)CC2)ncnc1N1CCc2ccc(C(F)(F)F)cc2C1 (stereo not shown) [Example 13] | 7 | 2270
Cc1c(NC[C@H]2CCC[C@@H](c3ccc(C(F)(F)F)cc3)O2)ncnc1C(=O)N1CCC(N2CCOC3COCCC32)CC1 (stereo partly shown) [Example 21] | 3 | 200
Cc1c(Nc2ccc(Cl)c(Cl)c2)ncnc1C(=O)N1CCC(N2CCO[C@H]3COCC[C@H]32)CC1 [Example 24] | 2 | 670
Cc1c(Nc2ccc(Cl)c(Cl)c2)nc(C2CC2)nc1C(=O)N1CCC(N2CCO[C@@H]3COCC[C@@H]32)CC1 (single isomer, unassigned) [Example 35b] | 9 | 1350
Cc1c(NC[C@H]2CCC[C@@H](c3ccc(OC(F)(F)F)cc3)O2)ncnc1C(=O)N1CCC(N2CCO[C@@H]3COCC[C@H]32)CC1 (single isomer, unassigned) [Example 34] | 26 | 1140
